Experiments:
[1] = Visual evaluation of the degree of wettability of solid formulations poured into water; format: physicochemical; conditions: for Visual degree of wettability of the solid formulation: process of the invention, fluid bed, 1.5 g in 100 ml water at room temperature
[2] = Static contact angle of ultrapure water on sample pelleted or deposited as film (Krüss Easy Drop); format: physicochemical; conditions: 8 μL milliQ water drop, mean with standard deviation, 0 = complete wettability; for Contact angle on pellet: pelleted sample; for Contact angle on film (°): sample deposited as film
Description: 1.4 Contact angle measurements on hydrophobic substrates treated according to the process of the present invention (see section 1 of the experimental part).
The experimental measurements reported hereinafter relate to the study of the wettability characteristics of powdered samples before and after the process according to the present invention. The determination of the static contact angle of ultrapure water (also referred to as grade 1) was carried out on the surface of the sample pelleted or deposited in the form of film, according to methods known in the state of the art and as reported in [1] Nowak et al. Powder Technology 233 (2013) 52-64, e in [2] Bachmann and McHale, European Journal of Soil Science, 60 (2009) 420-430. The determinations were carried out using a Krüss Easy Drop instrument using drops of 8 μL of milliQ water. The behaviour of the drop in the first seconds from the deposition was analysed by recording 30-second video at 25 fps (frames per second): the contact angle considered is the equilibrium value or the final one at the end of the recording. Each sample was analysed both deposited in the form of film and pelleted and at least 3 independent contact angle determinations were carried out for each sample.
5 different types of powders were analysed; each of them was analysed both in the unmodified form thereof (as such) and after the process according to the present invention. In the case of the PEA (Palmitoylethanolamide) powder, a second batch of sample was analysed, for which only measurements on film were carried out. The results of the determinations are reported in Table IV: the mean contact angle value with standard deviation relative to the measurements on pellet and on film are reported. In case of complete wettability of the sample, an angle of 0° is reported. Overall, a greater correspondence of the wettability data measured on film with the dispersibility data observed experimentally (visual observation) is observed. This observation is in good agreement with the literature; the less representativeness of the measurements on pellets can be linked in some cases to absorption phenomena linked to the porosity of the pellet or to alterations of the surface free energy of the powder during pelletisation due to the applied pressure.

[3] = comparison process (A) dry mixing in a cube (1 kg), charging agent maltodextrin, 50%/50%
[4] = comparison process (A) dry mixing in a cube (1 kg), charging agent maltodextrin, 70%/30%
[5] = comparison process (A) dry mixing in a cube (1 kg), charging agent mannitol, 50%/50%
[6] = comparison process (A) dry mixing in a cube (1 kg), charging agent mannitol, 70%/30%
[7] = comparison process (A) dry mixing in a cube (1 kg), charging agent sugar, active/charging agent 50%/50%
[8] = comparison process (A) dry mixing in a cube (1 kg), charging agent sugar, active/charging agent 70%/30%
[9] = comparison process (B) wet granulations (1.5 kg), charging agent maltodextrin, 50%/50%
[10] = comparison process (B) wet granulations (1.5 kg), charging agent maltodextrin, 70%/30%
[11] = comparison process (B) wet granulations (1.5 kg), charging agent mannitol, 50%/50%
[12] = comparison process (B) wet granulations (1.5 kg), charging agent mannitol, 70%/30%
[13] = comparison process (B) wet granulations (1.5 kg), charging agent sugar, 50%/50%
[14] = comparison process (B) wet granulations (1.5 kg), charging agent sugar, 70%/30%
[15] = comparison process (C) wet granulation in a fluid bed granulator (1.5 kg), atomised water about 300-400 g, charging agent maltodextrin, 50%/50%
[16] = comparison process (C) wet granulation in a fluid bed granulator (1.5 kg), atomised water about 300-400 g, charging agent maltodextrin, 70%/30%
[17] = comparison process (C) wet granulation in a fluid bed granulator (1.5 kg), atomised water about 300-400 g, charging agent sugar, 50%/50%
[18] = comparison process (C) wet granulation in a fluid bed granulator (1.5 kg), atomised water about 300-400 g, charging agent sugar, 70%/30%
[19] = comparison process (C) wet granulation in a fluid bed granulator, atomised water about 300-400 g, charging agent mannitol, 50%/50%
[20] = comparison process (C) wet granulation in a fluid bed granulator, atomised water about 300-400 g, charging agent mannitol, 70%/30%
[21] = comparison process (D.a) granulation in a powder kneader (1 kg), active 90% w/w + liquid polysorbate 80 pure 10% w/w
[22] = comparison process (D.b) mixing in a cube (1 kg), active 90% w/w + powder sucrester 10% w/w
[23] = comparison process (E) wet granulation in a fluid bed granulator, active 90% + aqueous solution of polysorbate 80 at 10% w/w, 10%
[24] = solid substrate 90% w/w (900 g) + liquid polysorbate 80 pure at 100% 10% w/w (100 g)
[25] = solid substrate 93% w/w (930 g) + liquid polysorbate 80 pure at 100% 7% w/w (70 g)
[26] = solid substrate 95% w/w (950 g) + liquid polysorbate 80 pure at 100% 5% w/w (50 g)

| Molecule | Visual degree of wettability of the active component [1, 3] | Visual degree of wettability of the active component [1, 4] | Visual degree of wettability of the active component [1, 5] | Visual degree of wettability of the active component [1, 6] | Visual degree of wettability of the active component [1, 7] | Visual degree of wettability of the active component [1, 8] | Visual degree of wettability of the active component [1, 9] | Visual degree of wettability of the active component [1, 10] | Visual degree of wettability of the active component [1, 11] | Visual degree of wettability of the active component [1, 12] | Visual degree of wettability of the active component [1, 13] | Visual degree of wettability of the active component [1, 14] | Visual degree of wettability of the active component [1, 15] | Visual degree of wettability of the active component [1, 16] | Visual degree of wettability of the active component [1, 17] | Visual degree of wettability of the active component [1, 18] | Visual degree of wettability of the active component [1, 19] | Visual degree of wettability of the active component [1, 20] | Visual degree of wettability of the active component [1, 21] | Visual degree of wettability of the active component [1, 22] | also measured |
| --- | --- | --- | --- | --- | --- | --- | --- | --- | --- | --- | --- | --- | --- | --- | --- | --- | --- | --- | --- | --- | --- |
| CCCCCCCCCCCCCCCC(=O)NCCO [PEA, Palmitoylethanolamide] | Nil | Nil | Nil | Nil | Nil | Nil | Nil/low | Nil/low | Nil/low | Nil/low | Nil/low | Nil/low | Low/Sufficient | Low | Low/Sufficient | Low | Low/Sufficient | Low | Low/Sufficient | Nil | Visual degree of wettability of the active component [1, 23]: Low/Sufficient; Visual degree of wettability of the solid formulation [1, 24]: Excellent; Visual degree of wettability of the solid formulation [1, 25]: Fair; Visual degree of wettability of the solid formulation [1, 26]: Fair; Contact angle on pellet [2]: 72 ± 4 °; Contact angle on film (°) ([2]; listed as PEA as such): 117 ± 7 °; Contact angle on film (°) ([2]; listed as PEA as such second batch): 114 ± 5 ° |
| alpha-lactalbumin | Nil | Nil | Nil | Nil | Nil | Nil | Nil/low | Nil/low | Nil/low | Nil/low | Nil/low | Nil/low | Low/Sufficient | Low | Low/Sufficient | Low | Low/Sufficient | Low | Low/Sufficient | Nil | Visual degree of wettability of the active component [1, 23]: Low/Sufficient; Visual degree of wettability of the solid formulation [1, 24]: Excellent; Visual degree of wettability of the solid formulation [1, 25]: Fair; Visual degree of wettability of the solid formulation [1, 26]: Fair; Contact angle on pellet [2]: 61 ± 6 °; Contact angle on film (°) [2]: 69 ± 3 ° |

Source: patent US20230079100A1, “PROCESS FOR PREPARING SOLID FORMULATIONS COMPRISING A HYDROPHOBIC COMPOUND DISPERSIBLE IN A COLD LIQUID AND RELATIVE SOLID FORMULATIONS” (NUTRILINEA S.R.L., priority 2020, published 2023)
